The values below come from PubChem BioAssay (NCI).

Structures are written as SMILES.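 These data come from cells grown in 96-well plates and exposed to compound for 48 hours at five concentrations. GI50 is the concentration that inhibits growth by half. TGI: concentration producing complete growth inhibition.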

Test systems include MALME-3M melanoma; NCI-H460 lung; PC-3 prostate; HL-60(TB) leukemia; CAKI-1 renal; SR leukemia; UACC-257 melanoma; ACHN renal; SNB-75 CNS; SK-MEL-28 melanoma.
Assay in all cases: NCI-60 cell line screen, 48 h

On to `Clc1ccc(C2CC(c3cccc(Nc4ccncc4)c3)=NN2c2cc(Cl)cc(Cl)c2)cc1` (stereo not given), for which the GI50 in the assay on MALME-3M melanoma is 1.77 µM; with NCI-H460 lung it was 1.97 µM; with PC-3 prostate, 1.69 µM; in the assay with HL-60(TB) leukemia it was 2.2 µM; with CAKI-1 renal it was 1.61 µM; in the assay with SR leukemia, 1.86 µM. In addition, the GI50 in the assay on UACC-257 melanoma is 2.12 µM; in the assay on ACHN renal, 1.61 µM; in the assay with SNB-75 CNS, 1.4 µM; in the assay on SK-MEL-28 melanoma it was 1.76 µM. Besides, the TGI in the assay on MALME-3M melanoma is 3.68 µM; in the assay with NCI-H460 lung it was 4.03 µM; in the assay with PC-3 prostate, 3.29 µM; in the assay with HL-60(TB) leukemia, 5.05 µM; with CAKI-1 renal, 3.13 µM; in the assay with SR leukemia it was 4.65 µM. Besides, the TGI was found to be 4.42 µM with UACC-257 melanoma, 2.98 µM in the assay with ACHN renal, 2.93 µM with SNB-75 CNS and 3.39 µM in the assay on SK-MEL-28 melanoma.
